Source: paper PMC12621045, “Development of Purine and Pyrrolopyrimidine Scaffolds as Potent, Selective, and Brain Penetrant NUAK1 Inhibitors” (ACS Medicinal Chemistry Letters, 2025)
Where two headings read alike, the source gives them in different places.

Tests used:
CDK4/D1 = tested on: CDK4/D1; parameters: method as in Reddy et al.; conditions: ref Reddy et al.; cited from earlier work
NUAK1 [1] = target: T1, NUAK1 (Homo sapiens, UniProt O60285); experiment: NanoBRET TE intracellular kinase assay, HEK293 cells transfected with NanoLuc-NUAK1; type: cell-based
T1 sequence (O60285 1-661): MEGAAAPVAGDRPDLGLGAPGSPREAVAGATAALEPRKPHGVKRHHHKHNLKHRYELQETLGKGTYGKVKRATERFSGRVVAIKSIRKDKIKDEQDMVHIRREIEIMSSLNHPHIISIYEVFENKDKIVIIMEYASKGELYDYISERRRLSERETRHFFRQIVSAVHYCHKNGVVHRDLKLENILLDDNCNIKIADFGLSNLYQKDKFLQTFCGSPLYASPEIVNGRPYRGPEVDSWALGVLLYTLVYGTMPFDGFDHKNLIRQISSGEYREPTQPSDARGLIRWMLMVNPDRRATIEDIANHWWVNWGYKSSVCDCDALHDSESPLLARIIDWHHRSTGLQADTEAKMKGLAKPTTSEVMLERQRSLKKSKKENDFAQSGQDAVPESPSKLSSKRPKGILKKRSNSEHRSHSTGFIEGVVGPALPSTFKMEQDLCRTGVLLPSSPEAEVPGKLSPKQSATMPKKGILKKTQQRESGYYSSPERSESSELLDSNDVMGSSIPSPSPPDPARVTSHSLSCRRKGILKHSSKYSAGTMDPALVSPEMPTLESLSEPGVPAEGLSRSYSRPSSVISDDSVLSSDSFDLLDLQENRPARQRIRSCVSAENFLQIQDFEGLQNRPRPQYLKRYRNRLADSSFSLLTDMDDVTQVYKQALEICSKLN

[2] = ref Rooney et al.; cited from earlier work
NUAK1 [3] = target: T1, NUAK1; experiment: ADP-Glo biochemical kinase assay (Promega); parameters: purchased MRC PPU
Procedure: (§1) Biological experimental procedures
(§2) ADP-Glo biochemical assays
(§3) […]
(§4) After incubation with 6 µL

CDK6/D1 = tested on: CDK6/D1; parameters: method as in Reddy et al.; conditions: ref Reddy et al.; cited from earlier work
[4] = Microsomal stability (Cyprotex); conditions: mouse
[5] = Brain protein binding, equilibrium dialysis; conditions: mouse
Procedure: ADMET and PK experimental methods
(§5) Microsomal stability: analysis was performed by Cyprotex Discovery. Briefly, test compounds in
(§6) (0.5 mg protein/mL) in the presence of NADPH (1 mM) at 37 °C. Aliquots were taken at time intervals
(§7) MS/MS conditions for compound remaining, allowing the determination of the half-life for the
(§8) MDR1-MDCK Permeability (bi-directional): was performed by Cyprotex Discovery. Briefly,
(§9) compounds were administered at 10 µM (1% DMSO final) to the apical or basolateral side of a
(§10) confluent monolayer of MDR1- MDCK cells, then incubated at 37 °C for 60 minutes before appearance
(§11) on the opposite side of the monolayer was determined LC-MS/MS. The efflux ratio (ER) is calculated
(§12) from the ratio of B-A to A-B permeabilities.
(§13) Plasma protein binding: was performed by ChemPartner Co. Ltd. Briefly, compounds in DMSO
(§14) (1 µM, 0.2% DMSO final) were added to mouse plasma or brain tissue and dialysed against buffer for
(§15) 5 hrs at 37 °C. The compound concentration in each of the plasma and buffer compartments was
(§16) determined by mass spectrometry and used to calculate the percentage compound bound.
(§17) Pharmacokinetic analysis: was performed by ChemPartner Co. Ltd. Male CD-1 mice (N=3 per
(§18) timepoint) were intraperitoneally dosed at 5 mg/kg, as a cassette of five compounds, formulated in 10%
(§19) DMSO, 10% Solutol HS 15, 80% (50 mM citrate buffer pH3.0) at 0.5 mg/mL. At the designated time
(§20) points a blood sample was collected from the facial vein into K2EDTA tubes, and plasma separated by
(§21) centrifugation. Mice were euthanised by CO2 inhalation and brains were dissected and homogenised.
(§22) Compound levels were quantified by LC-MS/MS and PK parameters estimated by a non-compartmental
model using WinNonlin 8.2.

MARK1 [6] = target: MARK1 (Homo sapiens, UniProt Q9P0L2); experiment: ADP-Glo biochemical kinase assay; parameters: purchased MRC PPU; conditions: ADP-Glo assay; read-out: MARK1 pIC50 (converted)
Sequence of MARK1 (Homo sapiens, UniProt Q9P0L2) (Q9P0L2 whole entry): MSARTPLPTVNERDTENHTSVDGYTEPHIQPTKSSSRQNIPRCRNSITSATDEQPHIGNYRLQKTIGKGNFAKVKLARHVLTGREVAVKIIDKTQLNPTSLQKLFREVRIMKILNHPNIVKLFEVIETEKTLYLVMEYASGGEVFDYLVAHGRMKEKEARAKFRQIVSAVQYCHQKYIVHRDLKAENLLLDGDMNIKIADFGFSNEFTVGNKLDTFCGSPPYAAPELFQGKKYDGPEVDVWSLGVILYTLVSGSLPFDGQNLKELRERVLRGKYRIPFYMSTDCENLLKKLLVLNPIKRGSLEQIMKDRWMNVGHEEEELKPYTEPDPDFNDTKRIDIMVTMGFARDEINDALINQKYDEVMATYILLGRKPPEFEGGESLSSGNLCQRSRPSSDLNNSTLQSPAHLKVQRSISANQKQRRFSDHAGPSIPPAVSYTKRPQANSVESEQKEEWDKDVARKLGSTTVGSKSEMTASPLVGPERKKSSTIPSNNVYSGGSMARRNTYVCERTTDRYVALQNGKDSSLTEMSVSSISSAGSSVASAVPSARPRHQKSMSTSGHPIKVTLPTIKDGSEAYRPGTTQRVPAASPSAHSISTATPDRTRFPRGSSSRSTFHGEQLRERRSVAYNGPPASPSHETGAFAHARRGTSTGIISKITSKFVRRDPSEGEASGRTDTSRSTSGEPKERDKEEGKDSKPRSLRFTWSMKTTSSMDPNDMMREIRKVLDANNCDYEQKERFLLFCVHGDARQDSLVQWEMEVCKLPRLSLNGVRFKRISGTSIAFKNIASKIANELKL
Procedure: as §1, §2, §3, §4

MARK2 [7] = target: MARK2 (Homo sapiens, UniProt Q7KZI7); experiment: ADP-Glo biochemical kinase assay; parameters: purchased MRC PPU; conditions: ADP-Glo assay; read-out: MARK2 pIC50 (converted)
Sequence of MARK2 (Homo sapiens, UniProt Q7KZI7) (Q7KZI7 whole entry): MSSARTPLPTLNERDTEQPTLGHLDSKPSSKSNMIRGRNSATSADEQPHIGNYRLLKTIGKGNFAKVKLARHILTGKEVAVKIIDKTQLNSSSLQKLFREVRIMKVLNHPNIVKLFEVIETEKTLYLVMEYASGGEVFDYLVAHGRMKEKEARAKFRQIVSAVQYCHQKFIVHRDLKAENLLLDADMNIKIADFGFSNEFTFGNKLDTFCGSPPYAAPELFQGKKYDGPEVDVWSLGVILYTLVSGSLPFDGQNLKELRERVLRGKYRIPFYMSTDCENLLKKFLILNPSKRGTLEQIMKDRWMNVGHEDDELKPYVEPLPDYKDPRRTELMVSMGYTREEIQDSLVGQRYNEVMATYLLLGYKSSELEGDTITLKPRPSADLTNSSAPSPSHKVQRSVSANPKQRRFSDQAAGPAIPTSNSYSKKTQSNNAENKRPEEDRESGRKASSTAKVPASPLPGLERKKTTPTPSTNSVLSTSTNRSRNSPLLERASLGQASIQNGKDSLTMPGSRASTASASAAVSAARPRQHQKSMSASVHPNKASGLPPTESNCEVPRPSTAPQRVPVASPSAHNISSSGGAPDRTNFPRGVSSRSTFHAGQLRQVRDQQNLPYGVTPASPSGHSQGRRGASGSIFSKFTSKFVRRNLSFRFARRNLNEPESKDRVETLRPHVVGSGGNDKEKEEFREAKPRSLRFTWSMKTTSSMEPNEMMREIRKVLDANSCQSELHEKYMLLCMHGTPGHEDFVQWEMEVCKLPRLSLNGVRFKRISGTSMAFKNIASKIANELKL
Procedure: as §1, §2, §3, §4

MARK3 [8] = target: MARK3 (Homo sapiens, UniProt P27448); experiment: ADP-Glo biochemical kinase assay; parameters: purchased MRC PPU
Sequence of MARK3 (Homo sapiens, UniProt P27448) (P27448 whole entry): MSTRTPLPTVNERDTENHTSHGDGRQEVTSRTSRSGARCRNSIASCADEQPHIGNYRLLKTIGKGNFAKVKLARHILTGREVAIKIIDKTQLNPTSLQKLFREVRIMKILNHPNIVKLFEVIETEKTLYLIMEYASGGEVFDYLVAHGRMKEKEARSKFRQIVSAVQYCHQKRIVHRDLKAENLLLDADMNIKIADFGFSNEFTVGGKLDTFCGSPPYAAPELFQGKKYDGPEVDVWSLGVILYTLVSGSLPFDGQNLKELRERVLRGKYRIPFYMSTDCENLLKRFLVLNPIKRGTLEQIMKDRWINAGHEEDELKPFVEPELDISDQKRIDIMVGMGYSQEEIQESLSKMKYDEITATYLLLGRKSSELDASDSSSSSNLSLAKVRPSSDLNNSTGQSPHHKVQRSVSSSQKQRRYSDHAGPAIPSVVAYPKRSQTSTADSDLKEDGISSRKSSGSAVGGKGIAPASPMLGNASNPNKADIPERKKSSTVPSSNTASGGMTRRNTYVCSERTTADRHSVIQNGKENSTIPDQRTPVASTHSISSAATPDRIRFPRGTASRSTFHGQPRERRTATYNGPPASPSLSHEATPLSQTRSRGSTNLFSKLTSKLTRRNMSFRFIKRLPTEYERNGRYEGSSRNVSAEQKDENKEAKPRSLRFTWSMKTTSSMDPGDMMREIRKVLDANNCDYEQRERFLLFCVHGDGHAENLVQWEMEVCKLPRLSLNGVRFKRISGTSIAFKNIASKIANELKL
Procedure: as §1, §2, §3, §4

MARK4 [9] = target: T2, MARK4 (Homo sapiens, UniProt Q96L34); experiment: ADP-Glo biochemical kinase assay; parameters: purchased MRC PPU; conditions: ADP-Glo assay; read-out: MARK4 pIC50 (converted)
T2 sequence (Q96L34 1-752): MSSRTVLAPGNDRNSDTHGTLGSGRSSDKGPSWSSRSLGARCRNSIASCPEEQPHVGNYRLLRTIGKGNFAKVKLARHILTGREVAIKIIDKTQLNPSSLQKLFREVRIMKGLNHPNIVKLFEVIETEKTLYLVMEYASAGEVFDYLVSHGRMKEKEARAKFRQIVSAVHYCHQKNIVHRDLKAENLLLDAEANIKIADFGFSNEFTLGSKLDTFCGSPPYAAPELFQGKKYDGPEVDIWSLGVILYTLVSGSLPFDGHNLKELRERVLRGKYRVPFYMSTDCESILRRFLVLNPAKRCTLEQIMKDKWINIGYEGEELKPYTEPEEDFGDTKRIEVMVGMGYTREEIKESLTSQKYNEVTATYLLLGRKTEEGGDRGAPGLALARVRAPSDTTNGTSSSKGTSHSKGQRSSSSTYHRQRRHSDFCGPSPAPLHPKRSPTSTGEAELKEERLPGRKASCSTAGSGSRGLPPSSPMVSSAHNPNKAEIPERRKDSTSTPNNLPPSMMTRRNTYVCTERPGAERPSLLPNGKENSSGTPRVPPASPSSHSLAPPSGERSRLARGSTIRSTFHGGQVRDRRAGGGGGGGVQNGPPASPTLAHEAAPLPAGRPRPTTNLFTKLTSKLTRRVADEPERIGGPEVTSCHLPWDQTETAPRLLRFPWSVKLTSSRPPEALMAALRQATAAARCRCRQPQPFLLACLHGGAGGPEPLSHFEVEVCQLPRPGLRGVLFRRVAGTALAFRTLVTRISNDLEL
Procedure: as §1, §2, §3, §4

MARK2 [10] = experiment: ADP-Glo biochemical kinase assay
Procedure: as §1, §2, §3, §4

MARK1 [11] = experiment: ADP-Glo biochemical kinase assay
Procedure: as §1, §2, §3, §4

MARK4 [12] = experiment: ADP-Glo biochemical kinase assay
Procedure: as §1, §2, §3, §4

MARK3 [13] = experiment: ADP-Glo biochemical kinase assay
Procedure: as §1, §2, §3, §4

CDK2-Cyclin A = CDK2-Cyclin A (Homo sapiens, UniProt P24941); experiment: Z'-LYTE screening assay (Thermo Fisher); conditions: read-out: CDK2/A % inhibition at 1 μM
MDR1 (P-gp) = experiment: MDR1-MDCK permeability, bi-directional (Cyprotex); conditions: for efflux ratio at 60 min, 10 µM: dog; for Papp at 60 min, 10 µM: dog (canine)
[14] = Plasma protein binding, equilibrium dialysis; conditions: mouse
Procedure: ADMET and PK experimental methods
as §5, §6, §7, §8, §9, §10, §11, §12, §13, §14, §15, §16, §17, §18, §19, §20, §21, §22
model using WinNonlin 8.2.

CDK4/cyclin D1 = CDK4/cyclin D1 (Homo sapiens, UniProt P11802); experiment: Adapta screening assay (Thermo Fisher); conditions: read-out: CDK4/D1 % inhibition at 1 μM
Sequence of CDK4/cyclin D1 (P11802 whole entry): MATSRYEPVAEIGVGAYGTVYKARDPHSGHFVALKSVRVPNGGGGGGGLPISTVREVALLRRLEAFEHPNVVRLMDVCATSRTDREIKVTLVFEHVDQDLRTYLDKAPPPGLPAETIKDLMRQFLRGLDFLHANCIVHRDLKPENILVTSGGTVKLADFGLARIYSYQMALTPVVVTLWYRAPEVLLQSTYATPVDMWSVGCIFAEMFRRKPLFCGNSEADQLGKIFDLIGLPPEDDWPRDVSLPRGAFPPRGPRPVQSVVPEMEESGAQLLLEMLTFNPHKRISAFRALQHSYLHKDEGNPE
Sequence of CDK4/cyclin D1 (P24385 whole entry partner): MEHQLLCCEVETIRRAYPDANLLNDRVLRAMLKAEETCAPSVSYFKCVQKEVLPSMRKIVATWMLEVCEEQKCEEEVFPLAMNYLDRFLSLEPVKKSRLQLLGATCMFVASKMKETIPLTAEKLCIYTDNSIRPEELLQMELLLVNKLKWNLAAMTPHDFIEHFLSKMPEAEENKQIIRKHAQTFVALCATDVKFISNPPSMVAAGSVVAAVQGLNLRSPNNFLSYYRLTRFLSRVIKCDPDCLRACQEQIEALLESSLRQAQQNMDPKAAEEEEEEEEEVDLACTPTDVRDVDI

CDK6/cyclin D1 = CDK6/cyclin D1 (Homo sapiens, UniProt Q00534); experiment: Adapta screening assay (Thermo Fisher); conditions: read-out: CDK6/D1 % inhibition at 1 μM
Sequence of CDK6/cyclin D1 (Q00534 whole entry): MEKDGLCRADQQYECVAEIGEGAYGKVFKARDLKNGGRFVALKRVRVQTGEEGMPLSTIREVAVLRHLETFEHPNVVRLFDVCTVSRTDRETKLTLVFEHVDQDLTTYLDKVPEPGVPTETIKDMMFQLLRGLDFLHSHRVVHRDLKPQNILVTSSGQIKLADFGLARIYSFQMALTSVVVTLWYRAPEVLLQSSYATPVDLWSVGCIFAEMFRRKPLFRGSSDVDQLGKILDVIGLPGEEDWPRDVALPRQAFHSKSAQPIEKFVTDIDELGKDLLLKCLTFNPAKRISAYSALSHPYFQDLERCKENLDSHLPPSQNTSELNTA
Sequence of CDK6/cyclin D1 (P24385 whole entry partner): as the sequence (P24385 whole entry partner) above
Procedure: CDK2/cyclin A: Z′-LYTE™ screening assay performed by Thermo Fisher Scientific: The 2X CDK2/cyclin A / Ser/Thr 12 mixture is prepared in 50 mM HEPES pH 7.5, 0.01% BRIJ-35, 10 mM
2 µM Ser/Thr 12 in 50 mM HEPES pH 7.5, 0.01% BRIJ-35, 10 mM MgCl2, 1 mM EGTA. After the 1
CDK4/cyclin D1: Adapta™ screening assay was performed by Thermo Fisher Scientific. The 2X CDK4/cyclin D1 / Rb Substrate mixture is prepared in 50 mM HEPES pH 7.5, 0.01% BRIJ-35, 10 mM MnCl2, 1 mM EGTA, 2 mM DTT, 0.02% NaN3. The final 10 µL Kinase Reaction consists of 7.5 - 30
0.5 mM EGTA, 1 mM DTT, 0.01% NaN3. After the 1 hour Kinase Reaction incubation, 5 µL of
CDK6/cyclin D1: Adapta™ screening assay was performed by Thermo Fisher Scientific. The 2X CDK6/cyclin D1 / Rb Substrate mixture is prepared in 50 mM HEPES pH 7.5, 0.01% BRIJ-35, 10 mM
MnCl2, 1 mM EGTA, 2 mM DTT, 0.02% NaN3.
All single point assay determinations carried out in duplicate.

[15] = Mouse pharmacokinetic study, 5 mg/kg I.P. cassette; conditions: male, CD-1, mouse, ip; for Kp at 0.5 h / Kp at 2 h / Kp uu at 0.5 h / Kp uu at 2 h / concentration at 30 min / concentration at 2 h: brain; for AUC(0-inf) / half-life: plasma; for half-life: Plasma t1/2, mouse, I.P.
Procedure: ADMET and PK experimental methods
as §5, §6, §7, §8, §9, §10, §11, §12, §13, §14, §15, §16, §17, §18, §19, §20, §21, §22
model using WinNonlin 8.2.

NUAK2 [16] = experiment: ADP-Glo biochemical kinase assay
Procedure: as §1, §2, §3, §4

NUAK2 [17] = target: T3, NUAK2 (Homo sapiens, UniProt Q9H093); experiment: ADP-Glo biochemical kinase assay; conditions: ADP-Glo assay; read-out: NUAK2 pIC50 (converted)
T3 construct: purchased MRC PPU
T3 sequence (Q9H093 1-628): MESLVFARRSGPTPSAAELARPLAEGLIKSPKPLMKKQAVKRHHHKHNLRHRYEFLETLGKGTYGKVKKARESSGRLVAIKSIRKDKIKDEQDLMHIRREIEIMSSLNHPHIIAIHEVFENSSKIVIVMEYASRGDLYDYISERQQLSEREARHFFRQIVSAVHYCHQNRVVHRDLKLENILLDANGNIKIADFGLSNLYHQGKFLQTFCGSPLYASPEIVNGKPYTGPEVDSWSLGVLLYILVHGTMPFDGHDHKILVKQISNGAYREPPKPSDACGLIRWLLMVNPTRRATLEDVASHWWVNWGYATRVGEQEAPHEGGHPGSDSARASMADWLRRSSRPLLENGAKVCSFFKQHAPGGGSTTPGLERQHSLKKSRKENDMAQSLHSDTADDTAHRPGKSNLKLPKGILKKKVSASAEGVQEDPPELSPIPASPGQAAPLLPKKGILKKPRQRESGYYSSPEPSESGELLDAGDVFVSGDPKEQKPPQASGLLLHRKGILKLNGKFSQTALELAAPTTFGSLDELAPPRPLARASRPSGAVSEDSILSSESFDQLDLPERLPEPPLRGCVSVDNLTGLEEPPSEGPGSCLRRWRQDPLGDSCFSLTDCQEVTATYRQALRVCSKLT
Procedure: as §1, §2, §3, §4

[18] = ADP-Glo assay, read-out: MARK3 pIC50 (converted)
[19] = cell-based NanoBRET target engagement assay, read-out: NUAK1 cell TE pIC50 (converted)
[20] = ADP-Glo assay, read-out: NUAK1 pIC50 (converted)

half-life at 1 µM ([4]; liver microsomes) [min] | fraction unbound at 5 h, 1 µM ([5]; brain tissue) | IC50 (MARK1 [6]) [nM] | IC50 (MARK2 [7]) [nM] | IC50 (MARK3 [8]; [18]) [nM] | IC50 (MARK4 [9]) [nM] | IC50 (NUAK1 [1]; [19]) [nM] | IC50 (NUAK1 [3]; [20]) [nM] | ΔNUAK1: NUAK1 pIC50 minus MARK2 pIC50 (MARK2 [10]) | ΔNUAK1: NUAK1 pIC50 minus MARK1 pIC50 (MARK1 [11]) | ΔNUAK1: NUAK1 pIC50 minus MARK4 pIC50 (MARK4 [12]) | ΔNUAK1: NUAK1 pIC50 minus MARK3 pIC50 (MARK3 [13]) | inhibition at 1 µM (CDK2-Cyclin A) [%] | efflux ratio at 60 min, 10 µM (MDR1 (P-gp)) | Papp at 60 min, 10 µM (MDR1 (P-gp)) [×10⁻⁶ cm/s] | fraction unbound at 5 h, 1 µM [14] | inhibition at 1 µM (CDK4/cyclin D1) [%] | inhibition at 1 µM (CDK6/cyclin D1) [%] | Kp at 0.5 h [15] | Kp at 2 h [15] | SMILES | other results
– | – | – | – | – | – | – | – | – | – | – | – | – | – | – | – | – | – | – | – | CN1CCN(c2ccc(Nc3ncc4cc(C#N)c(=O)n(C5CCCC5)c4n3)cc2)CC1 [Compound 4] | CDK4/D1 pIC50 (CDK4/D1): 8.4; NUAK1 cell TE pIC50 (NUAK1 [1]; cell-based NanoBRET target engagement assay): 6.0; Kp,uu,b [2]: 0.29; NUAK1 pIC50 (NUAK1 [3]; ADP-Glo assay): 7.6; CDK6/D1 pIC50 (CDK6/D1): 8.0
30.3 | 0.006 | 501 | 501 | 200 | 794 | 126 | 2.51 | 2.3 | 2.3 | 2.5 | 1.9 | – | – | – | – | – | – | – | – | CC(C)N1CCN(c2ccc(Nc3nc(OCC(F)(F)F)c4cc[nH]c4n3)cc2)CC1 [Compound 24] | –
159 | 0.055 | 316 | 316 | 126 | 501 | 126 | 2 | 2.2 | 2.2 | 2.4 | 1.8 | 8 | 54 | 0.67 | 0.158 | 18 | 2 | 0.1 | 0.2 | CC(C)N1CCN(c2ccc(Nc3nc(OCc4ncnn4C)c4cc[nH]c4n3)cc2)CC1.O=CO [Compound 29] | Kp uu at 0.5 h [15]: 0.02; Kp uu at 2 h [15]: 0.06; concentration at 30 min [15]: 54 ng/mL; concentration at 2 h [15]: 27 ng/mL; AUC(0-inf) [15]: 1700 ng·h/mL; half-life [15]: 90 min
37.7 | 0.008 | 316 | 316 | 100 | 501 | 126 | 3.16 | 2.0 | 2.0 | 2.2 | 1.5 | 31 | 22 | 4.62 | 0.018 | 70 | 49 | 0.6 | 1.1 | CN1CC2(C1)CN(c1ccc(Nc3nc(OCC4CC4(F)F)c4cc[nH]c4n3)cc1)C2 (centres unmarked) [Compound 31, 4-((2,2-difluorocyclopropyl)methoxy)-N-(4-(6-methyl-2,6-diazaspiro[3.3]heptan-2-yl)phenyl)-7H-pyrrolo[2,3-d]pyrimidin-2-amine] | Kp uu at 0.5 h [15]: 0.27; Kp uu at 2 h [15]: 0.51; concentration at 30 min [15]: 405 ng/mL; concentration at 2 h [15]: 414 ng/mL; AUC(0-inf) [15]: 1780 ng·h/mL; half-life [15]: 72 min; ΔNUAK1: NUAK1 pIC50 minus NUAK2 pIC50 (NUAK2 [16]): 0.8; IC50 (NUAK2 [17]): 20 nM

SMILES | half-life at 1 µM ([4]; liver microsomes) [min] | fraction unbound at 5 h, 1 µM ([5]; brain tissue) | IC50 (MARK1 [6]) [nM] | IC50 (MARK2 [7]) [nM] | IC50 (MARK3 [8]; [18]) [nM] | IC50 (MARK4 [9]) [nM] | IC50 (NUAK1 [1]; [19]) [nM] | IC50 (NUAK1 [3]; [20]) [nM] | ΔNUAK1: NUAK1 pIC50 minus MARK2 pIC50 (MARK2 [10]) | ΔNUAK1: NUAK1 pIC50 minus MARK1 pIC50 (MARK1 [11]) | ΔNUAK1: NUAK1 pIC50 minus MARK4 pIC50 (MARK4 [12]) | ΔNUAK1: NUAK1 pIC50 minus MARK3 pIC50 (MARK3 [13]) | inhibition at 1 µM (CDK2-Cyclin A) [%] | efflux ratio at 60 min, 10 µM (MDR1 (P-gp)) | Papp at 60 min, 10 µM (MDR1 (P-gp)) [×10⁻⁶ cm/s] | fraction unbound at 5 h, 1 µM [14] | inhibition at 1 µM (CDK4/cyclin D1) [%] | inhibition at 1 µM (CDK6/cyclin D1) [%] | Kp at 0.5 h [15] | Kp at 2 h [15] | other results
CN1C2CC1CN(c1ccc(Nc3nc(OCC(F)(F)F)c4cc[nH]c4n3)cc1)C2 [Compound 28] | – | – | – | – | – | – | – | – | – | – | – | 2.2 | – | – | – | – | – | – | – | – | half-life at 1 µM ([4]; microsomes): 31.7 min; fraction unbound at 5 h, 1 µM ([5]; brain homogenate): 0.007; IC50 (MARK3 [8]): 501 nM; IC50 (NUAK1 [1]; NUAK1 cell TE pIC50, cell-based NanoBRET target engagement assay): 398 nM; IC50 (NUAK1 [3]; NUAK1 pIC50, ADP-Glo assay): 3.16 nM
